Measured values reported in patent US11365410B2, “Production and monitoring of metabolites in cells” (President and Fellows of Harvard College, priority 2015, dated 2022).

Experiments:
[1] = test system: muconate biosensor benM in BL21 cells; test: Real-time muconate monitoring from pathway intermediates with benM biosensor; format: cell-based, E. coli; conditions: strain with muconate biosynthesis pathway
From the text: A cell was genetically modified to include the muconate biosensor benM regulating production of a fluorescent molecule, and a LysR-type transcriptional regulator derived from Acinetobacter baylyi (see Craven, S. H., Ezezika, O. C., Haddad, S., Hall, R. A., Momany, C. and Neidle, E. L. (2009) Inducer responses of BenM, a LysR-type transcriptional regulator from Acinetobacter baylyi ADP1. Mol Microbiol, 72, 881-894 hereby incorporated by reference in its entirety). This setup is analogous to the previously described muconate artificial selection in which benM controls expression of an antibiotic resistance gene (see Raman, S., Rogers, J. K., Taylor, N. D. and Church, G. M. (2014) Evolution-guided optimization of biosynthetic pathways. Proceedings of the National Academy of Sciences of the United States of America, 111, 17803-17808 hereby incorporated by reference in its entirety. In order to achieve various muconate production rates for real-time observation, muconate was produced from a range of precursor molecules by implementing the biosynthetic pathway developed by Draths and Frost (see Niu, W., Draths, K. M. and Frost, J. W. (2002) Benzene-free synthesis of adipic acid. Biotechnology progress, 18, 201-211 and Draths, K. M. and Frost, J. W. (1994) Environmentally Compatible Synthesis of Adipic Acid from D-Glucose. […]
Muconate production monitoring was carried out in BL21 cells doubly transformed with pJKR-H-benM and the muconate production plasmid. […] After four hours, 150 μl of the log-phase cells were transferred to 96-well plates and monitored in the plate reader. After one hour, the specified concentration of pathway intermediate was added in triplicate and fluorescence monitoring was resumed. […] The quantity of muconate in the supernatant was determined by HPLC. […]

TtgR biosensor = TtgR biosensor induction with phenol and related compounds; format: cell-based, E. coli; conditions: 0.1% phenol, 0.1% catechol, up to 0.4% benzene; fluorescence after 90 minutes
Experimental: All experiments were carried out in triplicate.
(§1) DH5α cells transformed with pJKR plasmids and maintained with carbenicillin were used in the induction assays. For each induction evaluation experiment, the cells were grown overnight to saturation before being diluted 1:100 into fresh LB media and incubated at 200 RPM and 37° C. After four hours, 150 μl of the log-phase cells were transferred to 96-well plates and stock inducer was added to achieve the desired range of induction concentrations. Three separate wells were inoculated and independently supplemented with the appropriate amount of inducing chemical for each level of induction. Measurements were made on the same Biotek (Winooksi, Vt.) HT plate reader using the same settings: excitation 485/20, emission 528/20, 37° C. and fast shaking. Fluorescence and absorbance were measured every 10 minutes for 15 hours. Fluorescence was measured in arbitrary units (AFU) while optical density was determined by absorbance (OD). Normalized fluorescence was determined by dividing fluorescence by optical density for a given measurement. Five independent wells containing control strains, transformed with pUC19, were included to provide a measurement of background autofluorescence.

[2] = test system: glucarate biosensor cdaR in BL21 cells; test: Real-time glucarate monitoring from pathway intermediates with cdaR biosensor; format: cell-based, E. coli; conditions: strain with biosensor and biosynthesis pathway
Experimental: In representative examples, identical production conditions (genetics, media composition) were maintained but the exogenously supplemented precursor molecules were varied. […] The end-point fluorescence achieved by the addition of myo-inositol is just 20% that of glucuronate addition.
Glucarate production monitoring was carried out in BL21 cells doubly transformed with pJKR-H-cdaR and pJKR-GA-EXP. BL21 transformed with pJKR-H-cdaR alone was used as a control. Overnight cultures back-diluted 1:100 into Davis media supplemented with 5 g/L glucose. After four hours incubating at 200 RPM and 37° C., 150 μl of the log-phase cells were transferred to 96-well plates and exposed to 1 mM IPTG with the pathway intermediates described. […] End-point measurements were taken after eight hours. Glucarate production for titer measurement was carried out in BL21 transformed with pJKR-GA-EXP. An overnight culture was inoculated 1:100 into 1 mL of LB supplemented with 1 mM IPTG and the specified concentration of pathway intermediate. Production took place in 96-well blocks at 900 RPM and 37° C. for eight hours before supernatants were isolated and 0.2 μm filtered for LC/MS. All production runs were setup in triplicate. Error bars represent the 95% confidence interval derived from the standard error of the mean.

[3] = test system: inducible promoter driving sfGFP in DH5α cells; test: Hill-function fit of maximum GFP expression rate to inducer concentration; format: cell-based, E. coli
Experimental: The GFP expression rate was calculated at each time-point with the formula ΔGFP/OD. Scipy was used to perform a non-linear least-squares fit of the maximum GFP expression rate to the corresponding inducer concentration using the Hill function
Vmax is the maximum rate of GFP expression, Vmin is basal rate of GFP expression, I is the concentration of inducer, h is the hill coefficient and KL is the lumped half-maximal parameter described in Results. The variance of each parameter was determined from the least-squares covariance matrix.
A model of gene activation is applied as described herein to relate promoter activity to inducer concentration. Promoter activity is defined as the time derivative of fluorescence corrected for cell growth. […] Gene expression rates were fit to a Hill function adapted to account for both the maximum velocity of gene expression and the basal expression of the uninduced cells.

[4] = molecular target: T1, TtgR (Pseudomonas putida), regulator sequence SEQ ID NO: 14 (Pseudomonas putida, UniProt Q9AIU0); format: cell-based
T1 construct: expressed in transfected cells; host or cells: E. coli DH5alpha transformed with pJKR-H (high copy) or pJKR-L (low copy) plasmid
Experimental: as §1

With `Oc1ccccc1O` [catechol] the “fluorescence response of muconate biosensor” value [1] was “rapid fluorescence response” and the “fluorescent response of TtgR biosensor” value (TtgR biosensor) was “did not activate the sensor”.

For `O[C@H]1[C@H](O)[C@@H](O)[C@H](O)[C@@H](O)[C@H]1O` [myo-inositol], the “lag of fluorescence response behind glucuronate” value [2] was 60 min and the “end-point fluorescence relative to that of glucuronate addition” value ([2]; eight hours) was 20%.

AraC was tested, and the “Basal Expression Velocity” value ([3]; High copy number plasmid) was 20 ± 50 s⁻¹ and the “Basal Expression Velocity” value ([3]; Low copy number plasmid) was 40 ± 30 s⁻¹.

With `O=C(O)[C@H]1OC(O)[C@H](O)[C@@H](O)[C@@H]1O` (mixture of isomers) [glucuronate] the “end-point fluorescence relative to that of glucarate” value ([2]; eight hours) was 80%.

`O=C(O)C1=CC(=O)[C@@H](O)[C@H](O)C1` [DHS, 3-dehydroshikimate] was tested, and the “fluorescence response of muconate biosensor” value [1] was “rapid fluorescence response”.

`Oc1ccccc1` [Phenol, phenol] was tested, and the “Activation of TtgR sensor” value ([4]; 0.1%, 90 min) was “only phenol activated the sensor”.

With `CC(C)c1ccc(C(=O)O)cc1` [Cumate, cumate] the “Activation of TtgR by cumate” value ([4]; cross-reactivity panel, 20 μM) was “not activated”.

In the case of `O=C(O)c1ccc(O)c(O)c1` [protocatechuate], the “fluorescence response of muconate biosensor” value [1] is reported as “rapid fluorescence response”.
